“Also recorded” adds a separate entry of the source.
How the values were obtained:
MOR-1 = MOR-1 (Mus musculus, UniProt P42866); experiment: [35S]GTPγS functional assay, MOR-1 transfected cells; assay type: biochemical; settings: in words
DOR-1 = DOR-1 (Mus musculus, UniProt P32300); experiment: [35S]GTPγS functional assay, DOR-1 transfected cells; assay type: biochemical; settings: in words
CD1 mice = experiment: Reversal of tail flick antinociception by selective antagonists; assay type: in vivo, mouse; settings: 3 1.5 mg/kg sc; β-FNA 40 mg/kg, norBNI 10 mg/kg, NTI 0.5 mg/kg, naloxone 1 mg/kg, yohimbine 10 mg/kg
α2A adrenergic receptor = molecular target: T1, α2A adrenergic receptor (Homo sapiens, UniProt P08913); experiment: PDSP screening; assay type: binding; settings: in words (Table S1)
T1 sequence (P08913 1-465): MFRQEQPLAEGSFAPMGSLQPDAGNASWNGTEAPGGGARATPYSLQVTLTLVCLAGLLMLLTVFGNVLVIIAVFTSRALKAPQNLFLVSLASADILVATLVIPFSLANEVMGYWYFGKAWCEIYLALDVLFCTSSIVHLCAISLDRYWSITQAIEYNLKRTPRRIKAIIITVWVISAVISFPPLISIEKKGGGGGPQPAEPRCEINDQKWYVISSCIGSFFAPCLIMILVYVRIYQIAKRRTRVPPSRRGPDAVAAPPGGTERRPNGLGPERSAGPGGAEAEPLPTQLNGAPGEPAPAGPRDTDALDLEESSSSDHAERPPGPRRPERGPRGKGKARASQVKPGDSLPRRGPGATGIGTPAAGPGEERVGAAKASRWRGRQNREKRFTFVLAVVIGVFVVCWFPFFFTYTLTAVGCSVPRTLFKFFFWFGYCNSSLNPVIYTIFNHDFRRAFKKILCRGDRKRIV

KOR-1 = KOR-1 (Mus musculus, UniProt P33534); assay type: biochemical
KOR-1, sequence (P33534 whole entry): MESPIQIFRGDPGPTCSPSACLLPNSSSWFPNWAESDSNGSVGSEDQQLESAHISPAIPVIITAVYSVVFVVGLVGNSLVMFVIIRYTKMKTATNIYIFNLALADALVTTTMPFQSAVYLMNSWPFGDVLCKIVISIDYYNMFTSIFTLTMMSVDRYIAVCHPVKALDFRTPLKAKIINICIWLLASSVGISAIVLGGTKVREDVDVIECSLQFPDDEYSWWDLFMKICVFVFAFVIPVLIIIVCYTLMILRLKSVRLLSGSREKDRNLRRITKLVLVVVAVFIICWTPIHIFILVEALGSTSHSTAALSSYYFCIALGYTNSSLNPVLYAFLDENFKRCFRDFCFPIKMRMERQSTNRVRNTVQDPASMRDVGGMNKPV

mice [1] = experiment: Gastrointestinal transit; assay type: in vivo, mouse
mice [2] = experiment: Antinociceptive tolerance after repeated dosing; assay type: in vivo, mouse; settings: twice daily dosing
C57BL/6 mice = experiment: Respiratory rate; assay type: in vivo, mouse
mice [3] = experiment: Antisense oligodeoxynucleotide mapping of tail flick antinociception; assay type: in vivo, mouse; settings: 3 1.5 mg/kg sc, antisense icv days 1, 3, 5, test day 6
mice [4] = settings: mouse, in vivo
mice [5] = experiment: Radiant heat tail flick antinociception; assay type: in vivo, mouse
α2C adrenergic receptor = molecular target: T2, α2C adrenergic receptor (Homo sapiens, UniProt P18825); experiment: PDSP screening; assay type: binding; settings: in words (Table S1)
T2 sequence (P18825 1-462): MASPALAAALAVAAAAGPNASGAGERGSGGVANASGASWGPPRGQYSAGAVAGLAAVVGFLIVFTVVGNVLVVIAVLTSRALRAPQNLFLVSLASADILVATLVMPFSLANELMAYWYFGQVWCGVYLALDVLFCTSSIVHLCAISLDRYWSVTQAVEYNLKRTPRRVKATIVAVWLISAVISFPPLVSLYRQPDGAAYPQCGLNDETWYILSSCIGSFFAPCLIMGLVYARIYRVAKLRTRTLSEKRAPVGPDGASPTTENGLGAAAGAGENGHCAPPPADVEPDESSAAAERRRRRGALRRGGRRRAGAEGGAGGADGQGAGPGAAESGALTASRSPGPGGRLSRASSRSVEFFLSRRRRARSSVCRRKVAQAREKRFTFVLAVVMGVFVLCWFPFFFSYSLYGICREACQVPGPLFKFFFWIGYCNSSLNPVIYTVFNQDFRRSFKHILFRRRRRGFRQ

5HT7 = 5HT7 (Homo sapiens, UniProt P34969); experiment: PDSP screening; assay type: binding; settings: in words (Table S1)
5HT7, sequence (P34969 whole entry, species assumed): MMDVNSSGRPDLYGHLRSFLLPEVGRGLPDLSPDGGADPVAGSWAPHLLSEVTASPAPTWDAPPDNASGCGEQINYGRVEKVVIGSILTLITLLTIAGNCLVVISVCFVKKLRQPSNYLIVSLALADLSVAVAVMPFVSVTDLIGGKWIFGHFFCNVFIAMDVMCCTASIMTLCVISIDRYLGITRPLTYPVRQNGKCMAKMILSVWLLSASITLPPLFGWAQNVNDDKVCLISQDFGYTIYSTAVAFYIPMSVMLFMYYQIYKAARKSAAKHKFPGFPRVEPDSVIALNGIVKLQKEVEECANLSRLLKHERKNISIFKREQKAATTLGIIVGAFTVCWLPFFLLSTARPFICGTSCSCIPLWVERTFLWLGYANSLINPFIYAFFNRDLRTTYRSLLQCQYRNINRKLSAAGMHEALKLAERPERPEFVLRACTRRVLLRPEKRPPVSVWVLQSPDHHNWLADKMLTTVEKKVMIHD

[6] = molecular target: panel of other nonopioid drug targets; experiment: PDSP screening panel; assay type: binding; settings: read-out: Ki at nonopioid drug targets
[7] = dose twice analgesic ED50: morphine 5 mg/kg sc, 3 1.5 mg/kg sc
[8] = higher dose: morphine 10 mg/kg, 3 3 mg/kg sc
[9] = ~2× analgesic ED50: morphine 5 mg/kg sc, 3 1.2 mg/kg sc

DOR-1, sequence (P32300 whole entry): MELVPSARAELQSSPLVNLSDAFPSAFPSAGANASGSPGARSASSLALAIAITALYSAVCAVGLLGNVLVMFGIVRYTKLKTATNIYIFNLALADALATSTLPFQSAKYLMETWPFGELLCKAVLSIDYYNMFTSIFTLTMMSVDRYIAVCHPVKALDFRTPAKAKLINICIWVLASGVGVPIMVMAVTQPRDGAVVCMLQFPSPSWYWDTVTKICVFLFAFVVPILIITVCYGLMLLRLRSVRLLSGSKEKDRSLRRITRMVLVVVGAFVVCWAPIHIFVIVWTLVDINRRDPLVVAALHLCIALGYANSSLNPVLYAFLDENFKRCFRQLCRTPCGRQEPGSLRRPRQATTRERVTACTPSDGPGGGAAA
MOR-1, sequence (P42866 whole entry): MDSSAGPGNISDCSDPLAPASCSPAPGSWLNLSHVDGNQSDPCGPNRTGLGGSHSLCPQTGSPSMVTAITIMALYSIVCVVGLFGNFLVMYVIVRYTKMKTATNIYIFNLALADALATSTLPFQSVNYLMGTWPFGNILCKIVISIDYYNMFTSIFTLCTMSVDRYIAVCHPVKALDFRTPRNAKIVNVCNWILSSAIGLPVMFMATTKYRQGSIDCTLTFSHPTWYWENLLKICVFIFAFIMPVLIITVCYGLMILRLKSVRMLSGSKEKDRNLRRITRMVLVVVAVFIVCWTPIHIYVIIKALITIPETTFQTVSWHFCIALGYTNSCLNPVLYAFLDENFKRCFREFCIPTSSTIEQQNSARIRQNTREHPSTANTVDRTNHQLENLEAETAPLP

## CC[C@@H]1CN2CC[C@]3(Nc4ccccc4C3=O)[C@@H]2C[C@@H]1/C(=C\OC)C(=O)OC [Compound 6, (E)-Methyl-2-((1′S,6′S,7′S)-6′-ethyl-3-oxo-3′,5′,6′,7′,8′,8a′-hexahydro-2′H-spiro[indoline-2,1′-indolizin]-7′-yl)-3-methoxyacrylate]
MOR-1
  functional character at MOR-1: MOR-1 agonists
DOR-1
  functional character at DOR-1: DOR-1 antagonists

## CC[C@@H]1CN2CC[C@]3(Nc4cccc(C#N)c4C3=O)[C@@H]2C[C@@H]1/C(=C\OC)C(=O)OC [Compound 7, (E)-Methyl-2-((1′S,6′S,7′S)-4-cyano-6′-ethyl-3-oxo-3′,5′,6′,7′,8′,8a′-hexahydro-2′H-spiro[indoline-2,1′-indolizine]-7′-yl)-3-methoxyacrylate]
MOR-1
  functional character at MOR-1: MOR-1 agonists
DOR-1
  functional character at DOR-1: DOR-1 antagonists

## CC[C@@H]1CN2CC[C@]3(Nc4cccc(OC)c4C3=O)[C@@H]2C[C@@H]1/C(=C\OC)C(=O)OC [Compound 3, (E)-Methyl-2-((1′S,6′S,7′S)-6′-ethyl-4-methoxy-3-oxo-3′,5′,6′,7′,8′,8a′-hexahydro-2′H-spiro[indoline-2,1′-indolizine]-7′-yl)-3-methoxyacrylate]
MOR-1
  functional character at MOR-1: potent full agonist
CD1 mice
  sensitivity of antinociception to antagonists: insensitive to NTI, norBNI, and yohimbine; also recorded: antagonized by β-FNA and naloxone
α2A adrenergic receptor
  affinity at α2A adrenergic receptor: poor affinity
KOR-1
  functional character at KOR-1: antagonist
Mice [1]; 3 at 4 mg/kg sc
  effect on gastrointestinal transit: no further inhibition
Mice [1]; [7]
  effect on gastrointestinal transit: lowered gastrointestinal transit, but not nearly as much as morphine
Mice [2]
  ED50 shift after 5 days: < 2 fold
Mice [2]; 95% CI 42.27 to 65.67
  mean difference between 3 and morphine groups on day 5: 53.97 %MPE
C57BL/6 mice; [8]
  decrease of respiratory rate: approximately 15%
C57BL/6 mice; [9]
  decrease of respiratory rate: no respiratory depression
Mice [3]
  effect of antisense receptor downregulation on analgesic response: only affected in mu receptor downregulated mice (MOR-1 AN)
DOR-1
  functional character at DOR-1: antagonist
Mice [4]
  conditioned place preference or aversion: neither preference or aversive behavior
Mice [5]; CD1, C57BL/6 and 129Sv6 mice, sc (Figure S5)
  antinociceptive activity across mouse strains: equally active
Mice [5]; CD1 mice, icv, tail flick, 15 min
  ED50 (95% CI), intracerebroventricular: 0.38 (0.18- 0.81) μg
Mice [5]; E1/E11 MOR-1 KO mice, sc, tail flick
  ED50, exon 1/exon 11 double KO mice: no antinociception was observed
α2C adrenergic receptor
  affinity at α2C adrenergic receptor: poor affinity
5HT7
  affinity at 5HT7: poor affinity

## CC[C@@H]1CN2CC[C@]3(Nc4cccc(-c5ccccc5)c4C3=O)[C@@H]2C[C@@H]1/C(=C\OC)C(=O)OC [Compound 8, (E)-Methyl-2-((1′S,6′S,7′S)-6′-ethyl-3-oxo-4-phenyl-3′,5′,6′,7′,8′,8a′-hexahydro-2′H-spiro[indoline-2,1′-indolizine]-7′-yl)-3-methoxyacrylate]
MOR-1
  functional character at MOR-1: dual MOR-1/DOR-1 agonist
DOR-1
  functional character at DOR-1: dual MOR-1/DOR-1 agonist

## CC[C@@H]1CN2CC[C@]3(Nc4cccc(O)c4C3=O)[C@@H]2C[C@@H]1/C(=C\OC)C(=O)OC [Compound 4, (E)-Methyl-2-((1′S,6′S,7′S)-6′-ethyl-4-hydroxy-3-oxo-3′,5′,6′,7′,8′,8a′-hexahydro-2′H-spiro[indoline-2,1′-indolizine]-7′-yl)-3-methoxyacrylate]
MOR-1
  functional character at MOR-1: MOR-1 agonists
DOR-1
  functional character at DOR-1: DOR-1 antagonists

## CC[C@@H]1CN2CC[C@@]3(O)C(=Nc4cccc(OC)c43)[C@@H]2C[C@@H]1/C(=C\OC)C(=O)OC [Compound 2, (E)-Methyl-2-((2S,3S,7aS)-3-ethyl-7a-hydroxy-8-methoxy-1,2,3,4,6,7,7a,12b-octahydroindolo[2,3-a]quinolizin-2-yl)-3-methoxyacrylate]
MOR-1
  functional character at MOR-1: partial agonist
KOR-1
  functional character at KOR-1: weak KOR-1 and DOR-1 antagonist
[6]
  Ki: > 10 µM
DOR-1
  functional character at DOR-1: weak KOR-1 and DOR-1 antagonist

## CN1CC[C@]23c4c5ccc(O)c4O[C@H]2[C@@H](O)C=C[C@H]3[C@H]1C5 [morphine, reference compound]
Mice [1]; [7]
  effect on gastrointestinal transit: almost totally eliminated transit
Mice [2]; day 5
  ED50 after 5 days: 12.1 (7.6–19.4) mg/kg
C57BL/6 mice; [8]
  decrease of respiratory rate: approximately 50%
C57BL/6 mice; [9]
  decrease of respiratory rate: approximately 30%
Mice [4]
  conditioned place preference or aversion: significant conditioned place preference
Mice [5]; Mus musculus, sc, 0.25 h, read-out: antinociception sc, ED50 mg/kg (CI)
  ED50: 2.5 mg/kg

## CC[C@@H]1CN2CC[C@]3(Nc4cccc(-c5ccoc5)c4C3=O)[C@@H]2C[C@@H]1/C(=C\OC)C(=O)OC [Compound 9, (E)-Methyl-2-((1′S,6′S,7′S)-6′-ethyl-4-(furan-3-yl)-3-oxo-3′,5′,6′,7′,8′,8a′-hexahydro-2′H-spiro[indoline-2,1′-indolizine]-7′-yl)-3-methoxyacrylate]
MOR-1
  functional character at MOR-1: MOR-1 agonists
DOR-1
  functional character at DOR-1: DOR-1 antagonists

Source: paper PMC5344672 (Journal of medicinal chemistry, 2016)
